# Measured values taken from ChEMBL document CHEMBL1134024, “Synthesis and structure-activity studies of side-chain derivatized arylhydantoins for investigation as androgen receptor radioligands” (Bioorg Med Chem Lett, 2001).
# Tests used:
# Androgen receptor = target: T1, Androgen receptor (Rattus norvegicus, UniProt P15207); assay: Binding affinity against rat prostate cytosolic Androgen receptor using [3H]mibolerone as radioligand
# T1 sequence (P15207 whole entry): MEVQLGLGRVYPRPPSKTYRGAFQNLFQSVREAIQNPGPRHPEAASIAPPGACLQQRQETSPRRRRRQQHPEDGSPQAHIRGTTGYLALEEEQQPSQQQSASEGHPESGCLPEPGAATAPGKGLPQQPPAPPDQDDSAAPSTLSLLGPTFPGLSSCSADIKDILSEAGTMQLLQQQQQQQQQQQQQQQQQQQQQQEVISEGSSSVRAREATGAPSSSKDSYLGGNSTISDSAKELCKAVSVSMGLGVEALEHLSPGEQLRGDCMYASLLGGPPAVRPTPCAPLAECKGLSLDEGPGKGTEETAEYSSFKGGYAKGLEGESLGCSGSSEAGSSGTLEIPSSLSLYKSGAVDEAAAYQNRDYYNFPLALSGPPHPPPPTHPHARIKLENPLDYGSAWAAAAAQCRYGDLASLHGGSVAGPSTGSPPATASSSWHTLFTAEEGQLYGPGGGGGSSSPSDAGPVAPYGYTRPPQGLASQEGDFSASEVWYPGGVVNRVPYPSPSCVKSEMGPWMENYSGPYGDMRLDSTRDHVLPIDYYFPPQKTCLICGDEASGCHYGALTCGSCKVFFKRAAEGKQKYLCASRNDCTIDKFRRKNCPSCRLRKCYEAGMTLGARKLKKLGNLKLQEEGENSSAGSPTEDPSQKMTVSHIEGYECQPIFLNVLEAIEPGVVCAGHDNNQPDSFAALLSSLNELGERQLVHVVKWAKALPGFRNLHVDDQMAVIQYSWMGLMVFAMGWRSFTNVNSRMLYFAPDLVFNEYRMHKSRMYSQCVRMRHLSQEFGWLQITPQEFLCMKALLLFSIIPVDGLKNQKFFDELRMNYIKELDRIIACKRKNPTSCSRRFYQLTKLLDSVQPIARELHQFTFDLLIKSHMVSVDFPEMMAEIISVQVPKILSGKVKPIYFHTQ
# [1] = target: T2, Androgen receptor (Rattus norvegicus) (UniProt P15207); settings: Prostate gland
# T2 sequence (whole entry): T1 sequence (P15207 whole entry)
# Description: Displacement of [3H]-mibolerone from rat prostate cytosolic Androgen receptor
SMILES,Ki (Androgen receptor) [nM],Ka [1] [nM]
CC1(C)C(=O)N(c2ccc(C#N)c(C(F)(F)F)c2)C(=O)N1CCCc1cccc(I)c1,360,
CC1(C)C(=O)N(c2ccc(C#N)c(C(F)(F)F)c2)C(=O)N1CCF,141,
CC1(C)C(=O)N(c2ccc(C#N)c(C(F)(F)F)c2)C(=O)N1CCCCO [RU-58841],26,1.2
CN1C(=O)N(c2ccc(C#N)c(C(F)(F)F)c2)C(=O)C1(C)C,37,
COCCN1C(=O)N(c2ccc(C#N)c(C(F)(F)F)c2)C(=O)C1(C)C,120,
CC1(C)C(=O)N(c2ccc(C#N)c(C(F)(F)F)c2)C(=O)N1CCCF,321,
CC1(C)C(=O)N(c2ccc(C#N)c(C(F)(F)F)c2)C(=O)N1CCc1ccc(I)cc1,415,
CC1(C)C(=O)N(c2ccc(C#N)c(C(F)(F)F)c2)C(=O)N1Cc1ccc(I)cc1,150,
CC1(C)C(=O)N(c2ccc(C#N)c(C(F)(F)F)c2)C(=O)N1CCCc1ccc(I)cc1,65,
CC1(C)C(=O)N(c2ccc(C#N)c(C(F)(F)F)c2)C(=O)N1Cc1cccc(I)c1,123,
CC1(C)C(=O)N(c2ccc(C#N)c(C(F)(F)F)c2)C(=O)N1C/C=C/I,13,
CC1(C)C(=O)N(c2ccc(C#N)c(C(F)(F)F)c2)C(=O)N1CCc1cccc(I)c1,809,
